Reference: patent US8389541B2, “Inhibitors of protein tyrosine kinase activity” (MethylGene Inc., priority 2007, dated 2013)

Each compound was assayed against T1, VEGF receptor KDR (Homo sapiens, UniProt P35968) (assay: In vitro receptor tyrosine kinase assay (DELFIA), VEGF receptor KDR). Details: GST-VEGFR2 806-1356, 0.6 uM ATP; read-out: VEGFR IC50.
T1 construct: made in house; host or cells: Sf9 cells (Spodoptera frugiperda), baculovirus
Type: biochemical
From the text: In the case of VEGF receptor KDR a 1.6-kb cDNA corresponding to the catalytic domain of VEGFR2 or KDR (Genbank accession number AF035121 amino acid 806 to 1356) is cloned into the Pst I site of the pDEST20 Gateway vector (Invitrogen) for the production of a GST-tagged version of that enzyme.
The GST-VEGFR2806-1356 protein is expressed in Sf9 cells (Spodoptera frugiperda) upon infection with recombinant baculovirus construct.
The supernatant is loaded onto a GST-agarose column (Sigma) equilibrated with PBS pH 7.3. Following a four column volume (CV) wash with PBS pH 7.3+1% Triton X-100 and 4 CV wash with buffer B (50 mM Tris pH 8.0, 20% glycerol and 100 mM NaCl), bound proteins are step eluted with 5 CV of buffer B supplemented with 5 mM DTT and 15 mM glutathion. […] Final GST-VEGFR2806-1356 protein preparations concentrations are about 0.7 mg/ml with purity approximating 70%.

T1 sequence (P35968 806-1356): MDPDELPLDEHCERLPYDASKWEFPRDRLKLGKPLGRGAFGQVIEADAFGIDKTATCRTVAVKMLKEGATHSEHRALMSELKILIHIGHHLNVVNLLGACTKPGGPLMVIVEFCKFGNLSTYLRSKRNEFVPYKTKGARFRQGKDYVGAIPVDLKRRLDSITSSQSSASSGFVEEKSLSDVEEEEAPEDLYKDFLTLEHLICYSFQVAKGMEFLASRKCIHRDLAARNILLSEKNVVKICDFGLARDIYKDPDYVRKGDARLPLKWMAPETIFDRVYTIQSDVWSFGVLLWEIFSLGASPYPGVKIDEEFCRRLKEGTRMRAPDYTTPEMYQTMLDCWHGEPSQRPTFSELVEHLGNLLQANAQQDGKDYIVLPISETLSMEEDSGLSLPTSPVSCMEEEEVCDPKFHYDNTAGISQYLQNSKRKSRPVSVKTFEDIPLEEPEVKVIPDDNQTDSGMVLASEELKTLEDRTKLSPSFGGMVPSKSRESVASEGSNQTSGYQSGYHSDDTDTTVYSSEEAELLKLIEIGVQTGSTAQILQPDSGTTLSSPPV

Structure (SMILES) | IC50
COCCNCCc1cccc(-c2cc3nccc(Oc4ccc(NC(=O)C5(C(=O)Nc6ccccc6)CC5)cc4F)c3s2)c1 | < 250 nM
COCCNCc1cccc(-c2cc3nccc(Oc4ccc(NC(=S)NC(=O)Cc5ccccc5)cc4F)c3s2)n1 | < 250 nM
COCCNCCn1cc(-c2cc3nccc(Oc4ccc(NC(=O)C5(C(=O)Nc6ccc(F)cc6)CC5)cc4F)c3s2)cn1 | < 250 nM

The remaining lines, values ahead:

IC50 | Structure (SMILES)
< 250 nM | COCCNCc1cccc(-c2cc3nccc(Oc4ccc(NC(=O)C5(C(=O)Nc6ccccc6)CC5)cc4F)c3s2)c1
< 250 nM | COCCNCc1cccc(-c2cc3nccc(Oc4ccc(NC(=O)CC(=O)Nc5ccccc5)cc4F)c3s2)c1
< 250 nM | COCCNCc1ccc(-c2cc3nccc(Oc4ccc(NC(=O)CC(=O)Nc5ccccc5)cc4F)c3s2)c(F)c1

These compounds were tested on A549 cells (assay: Wound healing assay in A549 cells (HGF-stimulated)). Details: Homo sapiens, last dose that inhibited gap closing by more than 25%, 24 h, read-out: A549 WOUND_HEALING IC50.
Type: cell-based
Experimental: Wound healing assay in A549 cells. A549 cells (ATCC) are seeded in DMEM low glucose medium complemented with 10% FBS into 24-well plates at a density of 7.5×10^4 cells/well and grown to confluence (48 h). Inhibitors were added to the medium at a range of doses (0.00032-10 uM) for 3 h at which point a gap is introduced by scraping cells with a P1000 pipette tip. Cells are then stimulated to migrate by the addition of HGF (in the form of conditioned medium from 293T cells over-expressing the human HGF gene) and the culture is continued for 24 h. […] For the purpose of standardization, a control is carried on every assay plates.

Structure (SMILES) | IC50
COCCNCCc1cccc(-c2cc3nccc(Oc4ccc(NC(=O)C5(C(=O)Nc6ccccc6)CC5)cc4F)c3s2)c1 | < 250 nM
COCCNCc1cccc(-c2cc3nccc(Oc4ccc(NC(=S)NC(=O)Cc5ccccc5)cc4F)c3s2)n1 | < 250 nM
COCCNCCn1cc(-c2cc3nccc(Oc4ccc(NC(=O)C5(C(=O)Nc6ccc(F)cc6)CC5)cc4F)c3s2)cn1 | < 250 nM

Results, then the compound that gave them:

IC50 | Structure (SMILES)
< 250 nM | COCCNCc1cccc(-c2cc3nccc(Oc4ccc(NC(=O)C5(C(=O)Nc6ccccc6)CC5)cc4F)c3s2)c1
250 to 500 nM | COCCNCc1cccc(-c2cc3nccc(Oc4ccc(NC(=O)CC(=O)Nc5ccccc5)cc4F)c3s2)c1
> 1000 nM | COCCNCc1ccc(-c2cc3nccc(Oc4ccc(NC(=O)CC(=O)Nc5ccccc5)cc4F)c3s2)c(F)c1

These compounds were tested on DU145 cells (assay: Scatter assay in DU145 cells (HGF-stimulated)). Details: Homo sapiens, DU-145, last dose that created an inhibitory effect on scattering, 24 h, read-out: DU145 SCATT. INHIB IC50.
Type: cell-based
Experimental: Scatter assays in DU145. The scatter assay is performed as described previously (Miura H, Nishimura K, Tsujimura A, Matsumiya K, Matsumoto K, Nakamura T, et al. Effects of hepatocyte growth factor on E-cadherin-mediated cell-cell adhesion in DU145 prostate cancer cells. Urology 2001; 58(6):1064-9) for DU145 prostate carcinoma cells with the indicated modifications. In brief, DU145 cells (ATCC) are seeded in 24-well plates at a density of 7×10^3 cells/well in MEM medium complemented with 10% FBS and cultured for 48 h, to allow the formation of small compact colonies of cells. Inhibitors are subsequently added at a range of doses (0.00032-10 uM) for 3 h. Cells are then stimulated to migrate by the addition of HGF (in the form of conditioned medium from 293T cells over-expressing the human HGF gene) and the culture is continued for another 24 h. The IC50 values is defined as the last dose that created an inhibitory effect on scattering. For the purpose of standardization a control is carried on every test plates for the DU145 scattering assays.

Structure (SMILES) | IC50
COCCNCCc1cccc(-c2cc3nccc(Oc4ccc(NC(=O)C5(C(=O)Nc6ccccc6)CC5)cc4F)c3s2)c1 | < 250 nM
COCCNCc1cccc(-c2cc3nccc(Oc4ccc(NC(=S)NC(=O)Cc5ccccc5)cc4F)c3s2)n1 | < 250 nM
COCCNCCn1cc(-c2cc3nccc(Oc4ccc(NC(=O)C5(C(=O)Nc6ccc(F)cc6)CC5)cc4F)c3s2)cn1 | < 250 nM

More lines, now with the values ahead:

IC50 | Structure (SMILES)
< 250 nM | COCCNCc1cccc(-c2cc3nccc(Oc4ccc(NC(=O)C5(C(=O)Nc6ccccc6)CC5)cc4F)c3s2)c1
250 to 500 nM | COCCNCc1cccc(-c2cc3nccc(Oc4ccc(NC(=O)CC(=O)Nc5ccccc5)cc4F)c3s2)c1
250 to 500 nM | COCCNCc1ccc(-c2cc3nccc(Oc4ccc(NC(=O)CC(=O)Nc5ccccc5)cc4F)c3s2)c(F)c1

The compounds below were run against T2, c-Met (Homo sapiens, UniProt P08581) (assay: Inhibition of c-Met phosphorylation in MKN45 cells (direct ELISA)). Details: 3 h treatment, read-out: CMET ELISA IN MKN45 IC50.
T2 construct: endogenous in cells; host or cells: MKN45 gastric carcinoma cells
T2 sequence (P08581 25-1390): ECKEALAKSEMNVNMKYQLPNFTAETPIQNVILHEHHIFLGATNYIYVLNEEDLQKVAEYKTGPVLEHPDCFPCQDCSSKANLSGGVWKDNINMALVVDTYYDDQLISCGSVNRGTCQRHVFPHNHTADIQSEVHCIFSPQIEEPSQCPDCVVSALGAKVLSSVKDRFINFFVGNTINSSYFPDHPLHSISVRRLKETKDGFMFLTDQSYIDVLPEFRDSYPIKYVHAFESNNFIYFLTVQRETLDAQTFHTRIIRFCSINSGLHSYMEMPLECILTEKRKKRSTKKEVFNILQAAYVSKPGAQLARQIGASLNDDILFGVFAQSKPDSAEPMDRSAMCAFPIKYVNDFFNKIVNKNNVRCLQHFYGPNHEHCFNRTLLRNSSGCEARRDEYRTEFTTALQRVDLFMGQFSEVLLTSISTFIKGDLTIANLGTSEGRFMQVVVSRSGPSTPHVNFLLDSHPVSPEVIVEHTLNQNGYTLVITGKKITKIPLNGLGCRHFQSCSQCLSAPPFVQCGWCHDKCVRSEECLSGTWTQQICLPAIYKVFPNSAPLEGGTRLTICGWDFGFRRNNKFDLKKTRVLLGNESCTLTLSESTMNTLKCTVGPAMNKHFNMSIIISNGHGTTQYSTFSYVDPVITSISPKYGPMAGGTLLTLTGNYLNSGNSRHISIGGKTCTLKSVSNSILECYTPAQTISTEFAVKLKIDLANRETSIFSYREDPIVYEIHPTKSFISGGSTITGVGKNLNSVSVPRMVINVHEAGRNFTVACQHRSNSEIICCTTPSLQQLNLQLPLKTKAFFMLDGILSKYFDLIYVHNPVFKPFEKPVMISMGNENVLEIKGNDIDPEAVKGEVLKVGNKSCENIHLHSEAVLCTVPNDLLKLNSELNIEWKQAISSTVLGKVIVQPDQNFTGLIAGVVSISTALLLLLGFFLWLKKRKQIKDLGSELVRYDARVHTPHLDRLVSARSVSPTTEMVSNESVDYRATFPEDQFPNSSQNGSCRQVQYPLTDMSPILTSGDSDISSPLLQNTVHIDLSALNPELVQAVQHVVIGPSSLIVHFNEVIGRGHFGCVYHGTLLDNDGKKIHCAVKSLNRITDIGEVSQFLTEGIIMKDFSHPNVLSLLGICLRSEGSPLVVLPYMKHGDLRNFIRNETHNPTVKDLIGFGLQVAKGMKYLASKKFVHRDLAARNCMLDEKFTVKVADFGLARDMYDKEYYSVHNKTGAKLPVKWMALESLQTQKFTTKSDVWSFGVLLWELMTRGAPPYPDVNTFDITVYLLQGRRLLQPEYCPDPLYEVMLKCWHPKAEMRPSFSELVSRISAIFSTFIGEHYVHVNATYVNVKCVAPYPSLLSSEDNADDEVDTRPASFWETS
Type: cell-based
From the text: The following assay is used to determine inhibition of c-Met phosphorylation.
The c-Met receptor is expressed in numerous cancer cell lines derived from tumors of epithelial origin. In MKN45 gastric carcinoma cells the c-Met gene is amplified, resulting in several-fold overexpression of the receptor and its constitutive activation. For this reason constitutively high levels of ERK1/2 are also detected in these cells, independently of HGF-added stimulation (Smolen G A, Sordella R, Muir B, Mohapatra G, Barmettler A, Archibald H, et al. Amplification of MET may identify a subset of cancers with extreme sensitivity to the selective tyrosine kinase inhibitor PHA-665752. Proc Natl Acad Sci USA 2006). We have developed a sensitive method to follow c-Met phosphorylation in these cells. In previous studies with earlier generation c-Met inhibitors, we established that the IC50s for the inhibition of c-Met phosphorylation were identical using this novel ELISA approach and standard western blot procedure, with antibodies directed against the activating autocatalysis tyrosine residues of c-MET (Tyr Y1230-34-35).
Cell treatments: MKN45 cells are seeded into wells of 96-well plates at a density of 3×10^4 cells/well in RPMI medium supplemented with 10% FBS. HA-TPR-RON expressing 293T (clone 18) cells are seeded into wells of 96-well plates at a density of 3×10^4 cells/well in DMEM medium supplemented with 10% FBS. Cells are grown for 48 h prior to treatments with compounds of interest. Inhibitors are added to the medium in triplicate wells at the indicated doses. After 3 h of treatment, media is aspirated and cells are lysed by one freeze-thaw cycle in 50 μL/well hypotonic lysis buffer (25 mM HEPES pH 7.5, 10 mM NaCl with 1 mM 4-(2-aminoethyl)benzenesulfonyl fluoride hydrochloride, 200 μM sodium orthovanadate, 1 mM sodium fluoride, 10 μg/mL of leupeptin, 10 μg/mL of aprotinin/mL, 1 μg/mL of pepstatin and 50 μg/mL Na-p-tosyl-L-lysine chloromethyl ketone hydrochloride.
Detection of phosphorylated c-Met by direct ELISA: Lysate samples (5 μL) from wells of treatment plates are transferred to 80 μL of binding buffer (25 mM HEPES pH 7.5, 200 mM NaCl) in wells of high binding white polysterene 96-well plates (Corning). After an overnight protein binding incubation at 4° C., lysates are aspirated and wells are blocked for 1 h at 37° C. in TBST supplemented with 5% BSA. Plates are incubated with the primary antibodies anti-phospho-Tyrosine (Millipore, 4G10) diluted 1/15000 in TBST supplemented with 5% BSA for 1 h at room temperature. Plates are washed 3 times on a plate washer (SkanWasher, Molecular Devises), and incubated with the reporter antibody […] (Sigma) diluted 1/15000 in TBST supplemented with 5% BSA, for 1 h at room temperature. Plates are washed 3 times with TBST using on a plate washer and subsequently incubated with chemiluminescent substrate solution (ECL, Roche). Luminescence signal is captured on a Polar Star Optima apparatus (BMG LabTech).
Average values of the triplicate samples are used to prepare IC50 curves using a 4-parameter fit model. These curves are calculated using, for example, GraFit 5.0 software. For assay standardization purpose, an internal control is included on each experimental test plate.

Structure (SMILES) | IC50
COCCNCCc1cccc(-c2cc3nccc(Oc4ccc(NC(=O)C5(C(=O)Nc6ccccc6)CC5)cc4F)c3s2)c1 | < 250 nM
COCCNCc1cccc(-c2cc3nccc(Oc4ccc(NC(=S)NC(=O)Cc5ccccc5)cc4F)c3s2)n1 | < 250 nM
COCCNCCn1cc(-c2cc3nccc(Oc4ccc(NC(=O)C5(C(=O)Nc6ccc(F)cc6)CC5)cc4F)c3s2)cn1 | < 250 nM

Now from value to compound:

IC50 | Structure (SMILES)
< 250 nM | COCCNCc1cccc(-c2cc3nccc(Oc4ccc(NC(=O)C5(C(=O)Nc6ccccc6)CC5)cc4F)c3s2)c1
250 to 500 nM | COCCNCc1cccc(-c2cc3nccc(Oc4ccc(NC(=O)CC(=O)Nc5ccccc5)cc4F)c3s2)c1
< 250 nM | COCCNCc1ccc(-c2cc3nccc(Oc4ccc(NC(=O)CC(=O)Nc5ccccc5)cc4F)c3s2)c(F)c1

The compounds below were run against recombinant human c-Met/HGF receptor (Homo sapiens, UniProt P08581) (assay: In vitro receptor tyrosine kinase assay (DELFIA), c-Met/HGF receptor). Details: not given.
Chain of recombinant human c-Met/HGF receptor (P08581 1078-1337): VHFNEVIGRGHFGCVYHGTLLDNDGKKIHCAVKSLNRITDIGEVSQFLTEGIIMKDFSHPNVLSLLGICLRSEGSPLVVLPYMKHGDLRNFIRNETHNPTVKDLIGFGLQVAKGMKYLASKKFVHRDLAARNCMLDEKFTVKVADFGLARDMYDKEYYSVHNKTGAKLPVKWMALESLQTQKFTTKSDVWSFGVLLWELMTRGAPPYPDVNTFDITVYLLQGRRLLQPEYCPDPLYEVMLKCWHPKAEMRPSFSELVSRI

Structure (SMILES) | IC50
COCCNCCc1cccc(-c2cc3nccc(Oc4ccc(NC(=O)C5(C(=O)Nc6ccccc6)CC5)cc4F)c3s2)c1 | < 250 nM
COCCNCc1cccc(-c2cc3nccc(Oc4ccc(NC(=S)NC(=O)Cc5ccccc5)cc4F)c3s2)n1 | < 250 nM
COCCNCCn1cc(-c2cc3nccc(Oc4ccc(NC(=O)C5(C(=O)Nc6ccc(F)cc6)CC5)cc4F)c3s2)cn1 | < 250 nM

Further lines, results first:

IC50 | Structure (SMILES)
< 250 nM | COCCNCc1cccc(-c2cc3nccc(Oc4ccc(NC(=O)C5(C(=O)Nc6ccccc6)CC5)cc4F)c3s2)c1
< 250 nM | COCCNCc1cccc(-c2cc3nccc(Oc4ccc(NC(=O)CC(=O)Nc5ccccc5)cc4F)c3s2)c1
< 250 nM | COCCNCc1ccc(-c2cc3nccc(Oc4ccc(NC(=O)CC(=O)Nc5ccccc5)cc4F)c3s2)c(F)c1
